Earlier results, collected in patent publication US20240373890A1, “SWEETENER AND FLAVORING COMPOSITIONS PREPARED BY GLYCOSYLATED MOGROSIDES OR MONK FRUIT EXTRACTS, METHOD OF MAKING AND METHOD OF USE THEREOF” (EPC NATURAL PRODUCTS CO., LTD., priority 2021, published 2024).
Residues, ends and D or L forms follow the SMILES beside them.

Conditions: depends on the tested concentration compared with sucrose

Row | Molecule | Sweetness intensity compared with sucrose
1 | OC[C@H]1O[C@H](O[C@]2(CCl)O[C@H](CCl)[C@@H](O)[C@@H]2O)[C@H](O)[C@@H](O)[C@H]1Cl [sucralose] | about 600 times
2 | C[C@H](CC[C@@H](O[C@@H]1O[C@H](CO[C@@H]2O[C@H](CO)[C@@H](O)[C@H](O)[C@H]2O)[C@@H](O)[C@H](O)[C@H]1O[C@@H]1O[C@H](CO)[C@@H](O)[C@H](O)[C@H]1O)C(C)(C)O)[C@H]1CC[C@@]2(C)[C@@H]3CC=C4[C@@H](CC[C@H](O[C@@H]5O[C@H](CO[C@@H]6O[C@H](CO)[C@@H](O)[C@H](O)[C@H]6O)[C@@H](O)[C@H](O)[C@H]5O)C4(C)C)[C@]3(C)[C@H](O)C[C@]12C [mogroside V] | 250-300 times
3 | thaumatin | about 2000 times
4 | COC(=O)[C@H](Cc1ccccc1)NC(=O)[C@@H](N)CC(=O)O [Aspartame] (H-Asp-Phe-OMe) | 160-200 times
5 | O=S(=O)([O-])NC1CCCCC1.[Na+] [sodium cyclamate] | about 30 times
